Laboratory results from the NIST ThermoML archive (doi:10.1021/je0601356).
“And” between values parts separate entries of the source, which are not always exact repeats. Equal values may be shown once. Numbers after ± are expanded uncertainties.

Conditions: Liquid, Vibrating wire viscometry

Structure (SMILES): CC(F)(F)F [1,1,1-trifluoroethane]
- viscosity (273.21 K, 4960 kPa): 0.1724 ± 0.0055 mPa·s
- viscosity (273.21 K, 5010 kPa): 0.172 ± 0.0055 mPa·s
- viscosity (273.21 K, 5030 kPa): 0.1723 ± 0.0055 mPa·s
- viscosity (273.21 K, 7780 kPa): 0.1804 ± 0.0055 mPa·s
- viscosity (273.21 K, 7800 kPa): 0.1805 ± 0.0055 mPa·s
- viscosity (273.21 K, 7810 kPa): 0.1806 ± 0.0055 mPa·s
- viscosity (273.21 K, 7900 kPa): 0.1803 ± 0.0055 mPa·s
- viscosity (273.21 K, 7960 kPa): 0.1805 ± 0.0055 mPa·s
- viscosity (273.21 K, 9530 kPa): 0.1854 ± 0.0056 mPa·s
- viscosity (273.21 K, 9540 kPa): 0.1852 ± 0.0056 mPa·s
- viscosity (273.21 K, 9580 kPa): 0.1856 ± 0.0056 mPa·s
- viscosity (273.21 K, 9610 kPa): 0.1851 ± 0.0056 mPa·s
- viscosity (273.21 K, 9770 kPa): 0.185 ± 0.0056 mPa·s
- viscosity (273.21 K, 9880 kPa): 0.1853 ± 0.0056 mPa·s
- viscosity (283.22 K, 1240 kPa): 0.1416 ± 0.005 mPa·s
- viscosity (283.22 K, 1260 kPa): 0.1418 ± 0.0049 mPa·s
- viscosity (283.22 K, 1470 kPa): 0.1416 ± 0.0049 mPa·s
- viscosity (283.22 K, 1510 kPa): 0.1424 ± 0.005 mPa·s
- viscosity (283.22 K, 1530 kPa): 0.1424 ± 0.005 mPa·s
- viscosity (283.22 K, 1570 kPa): 0.1429 ± 0.005 mPa·s
- viscosity (283.22 K, 1900 kPa): 0.1433 ± 0.005 mPa·s
- viscosity (283.22 K, 1930 kPa): 0.1433 ± 0.005 mPa·s
- viscosity (283.22 K, 1950 kPa): 0.1432 ± 0.005 mPa·s
- viscosity (283.22 K, 1970 kPa): 0.144 ± 0.005 mPa·s
- viscosity (283.22 K, 2000 kPa): 0.1435 ± 0.005 mPa·s
- viscosity (283.22 K, 2050 kPa): 0.1442 ± 0.005 mPa·s
- viscosity (283.22 K, 3700 kPa): 0.1495 ± 0.0051 mPa·s
- viscosity (283.22 K, 3720 kPa): 0.1496 ± 0.0051 mPa·s
- viscosity (283.22 K, 3850 kPa): 0.1497 ± 0.0051 mPa·s
- viscosity (283.22 K, 5130 kPa): 0.1537 ± 0.0052 mPa·s
- viscosity (283.22 K, 5220 kPa): 0.1543 ± 0.0051 mPa·s
- viscosity (283.22 K, 5260 kPa): 0.1536 ± 0.0052 mPa·s and 0.154 ± 0.0052 mPa·s
- viscosity (283.22 K, 7400 kPa): 0.1615 ± 0.0053 mPa·s
- viscosity (283.22 K, 7500 kPa): 0.161 ± 0.0052 mPa·s
- viscosity (283.22 K, 7540 kPa): 0.1607 ± 0.0052 mPa·s
- viscosity (283.22 K, 9720 kPa): 0.1679 ± 0.0053 mPa·s
- viscosity (283.22 K, 9780 kPa): 0.1678 ± 0.0053 mPa·s
- viscosity (283.22 K, 9940 kPa): 0.168 ± 0.0053 mPa·s
- viscosity (283.22 K, 10050 kPa): 0.1678 ± 0.0053 mPa·s
- viscosity (293.17 K, 1370 kPa): 0.1253 ± 0.0047 mPa·s
- viscosity (293.17 K, 1390 kPa): 0.1255 ± 0.0047 mPa·s
- viscosity (293.17 K, 1400 kPa): 0.1252 ± 0.0047 mPa·s
- viscosity (293.17 K, 1420 kPa): 0.1256 ± 0.0047 mPa·s
- viscosity (293.17 K, 1430 kPa): 0.1258 ± 0.0047 mPa·s and 0.1256 ± 0.0047 mPa·s
- viscosity (293.17 K, 1440 kPa): 0.1258 ± 0.0047 mPa·s
- viscosity (293.17 K, 1850 kPa): 0.1268 ± 0.0047 mPa·s
- viscosity (293.17 K, 1860 kPa): 0.1266 ± 0.0047 mPa·s
- viscosity (293.17 K, 1890 kPa): 0.1271 ± 0.0047 mPa·s
- viscosity (293.17 K, 1920 kPa): 0.1267 ± 0.0047 mPa·s
- viscosity (293.17 K, 1940 kPa): 0.127 ± 0.0047 mPa·s
- viscosity (293.17 K, 3820 kPa): 0.1333 ± 0.0048 mPa·s
- viscosity (293.17 K, 3830 kPa): 0.1336 ± 0.0048 mPa·s
- viscosity (293.17 K, 3850 kPa): 0.1337 ± 0.0048 mPa·s
- viscosity (293.17 K, 3860 kPa): 0.1335 ± 0.0048 mPa·s
- viscosity (293.17 K, 3870 kPa): 0.1333 ± 0.0048 mPa·s
- viscosity (293.17 K, 3890 kPa): 0.1335 ± 0.0048 mPa·s and 0.1336 ± 0.0048 mPa·s
- viscosity (293.17 K, 4900 kPa): 0.1378 ± 0.0049 mPa·s
- viscosity (293.17 K, 4920 kPa): 0.1377 ± 0.0049 mPa·s
- viscosity (293.17 K, 4960 kPa): 0.138 ± 0.0049 mPa·s
- viscosity (293.17 K, 4970 kPa): 0.138 ± 0.0049 mPa·s
- viscosity (293.17 K, 5010 kPa): 0.1381 ± 0.0049 mPa·s
- viscosity (293.17 K, 7450 kPa): 0.1448 ± 0.005 mPa·s
- viscosity (293.17 K, 7490 kPa): 0.1446 ± 0.005 mPa·s
- viscosity (293.17 K, 7520 kPa): 0.145 ± 0.005 mPa·s
- viscosity (293.17 K, 7550 kPa): 0.1449 ± 0.005 mPa·s
- viscosity (293.17 K, 7560 kPa): 0.1449 ± 0.005 mPa·s
- viscosity (293.17 K, 7590 kPa): 0.1451 ± 0.005 mPa·s
- viscosity (293.17 K, 7620 kPa): 0.1453 ± 0.005 mPa·s
- viscosity (293.17 K, 9740 kPa): 0.1507 ± 0.0051 mPa·s
- viscosity (293.17 K, 9770 kPa): 0.1506 ± 0.0051 mPa·s
- viscosity (293.17 K, 9820 kPa): 0.1507 ± 0.0051 mPa·s
- viscosity (293.17 K, 9880 kPa): 0.151 ± 0.0051 mPa·s
- viscosity (293.17 K, 9970 kPa): 0.1511 ± 0.0051 mPa·s
- viscosity (293.17 K, 10070 kPa): 0.1517 ± 0.0051 mPa·s
